Results on eight molecules are retold here after patent US12077503B2, “Substituted cyclic amides and their use as herbicides” (FMC CORPORATION, priority 2015, dated 2024).

Where two headings read alike, the source gives them in different places.

Experiment in all cases: Test A preemergence
Holding throughout (type): in vivo

Assay [1] has as its system ragweed (common ragweed, Ambrosia elatior). Conditions: Ambrosia artemisiifolia, pre-emergence, 240 h; for pest or weed control at 125 g/ha: 125 g ai/ha; for pest or weed control at 500 g/ha: 500 g ai/ha. The method in brief: (§1)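 Seeded soil received test chemicals as a preemergence directed spray, and seedlings at one to two leaves, 2–10 cm tall, received them postemergence, in a non-phytotoxic, surfactant-containing solvent mixture. Pots were held in a greenhouse for approximately 10 d, then rated for injury from 0, no effect, to 100, complete control.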

Assay [2] has as its system ryegrass, Italian (Italian ryegrass, Lolium multiflorum). To be noted: Lolium multiflorum, pre-emergence, 240 h; for pest or weed control at 125 g/ha: 125 g ai/ha; for pest or weed control at 500 g/ha: 500 g ai/ha. The essentials:
as §1

Assay [3] concerns Kochia (Kochia scoparia). Conditions: Bassia scoparia, pre-emergence, 240 h; for pest or weed control at 125 g/ha: 125 g ai/ha; for pest or weed control at 500 g/ha: 500 g ai/ha. The method in brief:
as §1

For assay [4], the system named is barnyardgrass (Echinochloa crus-galli). Conditions: Echinochloa crus-galli, pre-emergence, 240 h; for pest or weed control at 125 g/ha: 125 g ai/ha; for pest or weed control at 500 g/ha: 500 g ai/ha. The essentials:
as §1

The test system of assay [5] is pigweed (Amaranthus retroflexus). To be noted: Amaranthus retroflexus, pre-emergence, 240 h; for pest or weed control at 125 g/ha: 125 g ai/ha; for pest or weed control at 500 g/ha: 500 g ai/ha.
[6] abbreviates: preemergence, 0 to 100 scale where 0 is no effect and 100 is complete control, read-out: Ragweed plant response rating.
[7] abbreviates: Preemergence, visual injury vs untreated controls after approximately 10 d, read-out: Ragweed plant response rating (0 to 100 scale where 0 is no effect and 100 is complete control).
Setting [8] is: preemergence, 0 to 100 scale where 0 is no effect and 100 is complete control, read-out: Ryegrass, Italian plant response rating.
Setting [9] is: Preemergence, visual injury vs untreated controls after approximately 10 d, read-out: Ryegrass, Italian plant response rating (0 to 100 scale where 0 is no effect and 100 is complete control).
The mark [10] stands for this setting: preemergence, 0 to 100 scale where 0 is no effect and 100 is complete control, read-out: Kochia plant response rating.
[11] abbreviates: preemergence, 0 to 100 scale where 0 is no effect and 100 is complete control, read-out: Barnyardgrass plant response rating.
Setting [12] is: Preemergence, visual injury vs untreated controls after approximately 10 d, read-out: Barnyardgrass plant response rating (0 to 100 scale where 0 is no effect and 100 is complete control).
The mark [13] stands for this setting: preemergence, 0 to 100 scale where 0 is no effect and 100 is complete control, read-out: Pigweed plant response rating.
Where [14] appears, read: Preemergence, visual injury vs untreated controls after approximately 10 d, read-out: Pigweed plant response rating (0 to 100 scale where 0 is no effect and 100 is complete control).
Where [15] appears, read: preemergence, visual injury rating, 0 to 100 scale where 0 is no effect and 100 is complete control, approximately 10 d, read-out: Ragweed plant response rating.
The mark [16] stands for this setting: preemergence, visual injury rating, 0 to 100 scale where 0 is no effect and 100 is complete control, approximately 10 d, read-out: Ryegrass, Italian plant response rating.
Setting [17] is: preemergence, visual injury rating, 0 to 100 scale where 0 is no effect and 100 is complete control, approximately 10 d, read-out: Kochia plant response rating.
Setting [18] is: preemergence, visual injury rating, 0 to 100 scale where 0 is no effect and 100 is complete control, approximately 10 d, read-out: Barnyardgrass plant response rating.
Setting [19] is: preemergence, visual injury rating, 0 to 100 scale where 0 is no effect and 100 is complete control, approximately 10 d, read-out: Pigweed plant response rating.
Setting [20] is: Preemergence, visual injury rating after approximately 10 d, read-out: Ragweed plant response rating (0 to 100 scale, 0 is no effect, 100 is complete control).
[21] abbreviates: preemergence, visual injury rating about 10 d after treatment, 0 to 100 scale (0 no effect, 100 complete control), read-out: Ragweed plant response rating.
[22] abbreviates: Preemergence, visual injury rating after approximately 10 d, read-out: Ryegrass, Italian plant response rating (0 to 100 scale, 0 is no effect, 100 is complete control).
Setting [23] is: preemergence, visual injury rating about 10 d after treatment, 0 to 100 scale (0 no effect, 100 complete control), read-out: Ryegrass, Italian plant response rating.
Where [24] appears, read: Preemergence, visual injury rating after approximately 10 d, read-out: Kochia plant response rating (0 to 100 scale, 0 is no effect, 100 is complete control).
Where [25] appears, read: preemergence, visual injury rating about 10 d after treatment, 0 to 100 scale (0 no effect, 100 complete control), read-out: Kochia plant response rating.
The mark [26] stands for this setting: Preemergence, visual injury rating after approximately 10 d, read-out: Barnyardgrass plant response rating (0 to 100 scale, 0 is no effect, 100 is complete control).
Setting [27] is: preemergence, visual injury rating about 10 d after treatment, 0 to 100 scale (0 no effect, 100 complete control), read-out: Barnyardgrass plant response rating.
Where [28] appears, read: Preemergence, visual injury rating after approximately 10 d, read-out: Pigweed plant response rating (0 to 100 scale, 0 is no effect, 100 is complete control).
[29] abbreviates: preemergence, visual injury rating about 10 d after treatment, 0 to 100 scale (0 no effect, 100 complete control), read-out: Pigweed plant response rating.

Regarding `CSc1ccccc1NC(=O)[C@H]1C(=O)NC[C@@H]1c1cccc2c1OC(F)(F)O2` [Compound 865], the pest or weed control at 125 g/ha in assay [1] (setting [6]), in assay [2] (setting [8]), in assay [3] (setting [10]), in assay [4] (setting [11]) and in assay [5] (setting [13]) was 0% throughout. For the same molecule, the pest or weed control at 500 g/ha in assay [1] (setting [7]) turned out to be 0%; in assay [2] (setting [9]), 0%; in assay [4] (setting [12]), 70%; in assay [5] (setting [14]), 0%.

As to `CN1C[C@H](c2ccc(C#N)cc2)[C@@H](C(=O)Nc2cccc(F)c2F)C1=O` [Compound 1208], the pest or weed control at 125 g/ha in assay [1] (setting [15]) was determined as 40%; in assay [2] (setting [16]), 20%; in assay [3] (setting [17]), 70%; in assay [4] (setting [18]), 90%; in assay [5] (setting [19]), 60%. For the same molecule, the pest or weed control at 500 g/ha amounted to 100% in assay [1] (setting [6]); 70% in assay [2] (setting [8]); 100% in assay [3] (setting [10]); 100% in assay [4] (setting [11]); 90% in assay [5] (setting [13]).

`Cc1ccc([C@H]2CN(C)C(=O)[C@@H]2C(=O)Nc2cccc(F)c2C)cc1Cl` [Compound 1014]: the pest or weed control at 125 g/ha was found to be 0% in assay [1] (setting [20]); 0% in assay [2] (setting [22]); 20% in assay [3] (setting [24]); 90% in assay [4] (setting [26]); 30% in assay [5] (setting [28]). The pest or weed control at 500 g/ha in assay [1] (setting [21]) was 0%; in assay [2] (setting [23]), 70%; in assay [3] (setting [25]), 70%; in assay [4] (setting [27]), 90%; in assay [5] (setting [29]), 30%.

As for `CN1C[C@H](c2cccc(COC(F)F)c2)[C@@H](C(=O)Nc2ccccc2F)C1=O` [Compound 875], the pest or weed control at 125 g/ha in assay [1] (setting [6]) came out at 0%; in assay [2] (setting [8]), 0%; in assay [3] (setting [10]), 50%; in assay [4] (setting [11]) it was 90%; in assay [5] (setting [13]), 0%. The pest or weed control at 500 g/ha was determined as 50% in assay [1] (setting [7]); 30% in assay [2] (setting [9]); 80% in assay [3] (Preemergence, visual injury vs untreated controls after approximately 10 d, read-out: Kochia plant response rating (0 to 100 scale where 0 is no effect and 100 is complete control)); 90% in assay [4] (setting [12]); 0% in assay [5] (setting [14]).

As for `Cc1cc([C@H]2CN(C)C(=O)[C@@H]2C(=O)Nc2ccc(F)cc2F)ccc1Cl` [Compound 930], the pest or weed control at 500 g/ha was 0% in assay [1] (setting [21]); 70% in assay [2] (setting [23]); 90% in assay [3] (setting [25]); 90% in assay [4] (setting [27]); 30% in assay [5] (setting [29]). Moreover, the pest or weed control at 125 g/ha in assay [3] (setting [10]) was found to be 70%; in assay [4] (setting [11]), 90%; in assay [5] (setting [13]) it was 20%.

Consider `CN1C[C@H](c2ccc(C#N)cc2)[C@@H](C(=O)Nc2ccccc2F)C1=O` [Compound 1207], for which the pest or weed control at 125 g/ha in assay [1] (setting [15]) amounted to 30%; in assay [2] (setting [16]), 0%; in assay [3] (setting [17]), 30%; in assay [4] (setting [18]) it was 60%; in assay [5] (setting [19]) it was 0%. The pest or weed control at 500 g/ha in assay [1] (setting [6]) turned out to be 90%; in assay [2] (setting [8]) it was 20%; in assay [3] (setting [10]), 90%; in assay [4] (setting [11]) it was 100%; in assay [5] (setting [13]), 60%.

As to `O=C1NC[C@H](c2ccc3c(c2)OCO3)[C@H]1C(=O)Nc1ccc(F)cc1F` [Compound 1026], the pest or weed control at 125 g/ha in assay [1] (setting [20]) amounted to 50%; in assay [2] (setting [22]), 0%; in assay [3] (setting [24]), 30%; in assay [4] (setting [26]), 90%; in assay [5] (setting [28]) it was 0%. For the same molecule, the pest or weed control at 500 g/ha in assay [1] (setting [21]) worked out at 50%; in assay [2] (setting [23]), 0%; in assay [3] (setting [25]) it was 80%; in assay [4] (setting [27]), 90%; in assay [5] (setting [29]), 0%.

On to `Cc1cc([C@H]2CN(C)C(=O)[C@@H]2C(=O)Nc2cccc(F)c2F)ccc1Br` [Compound 1099], for which the pest or weed control at 125 g/ha in assay [1] (preemergence, 0 to 100 scale where 0 is no effect and 100 is complete control, approx. 10 d, read-out: Ragweed plant response rating) was determined as 20%; in assay [2] (preemergence, 0 to 100 scale where 0 is no effect and 100 is complete control, approx. 10 d, read-out: Ryegrass, Italian plant response rating), 50%; in assay [3] (preemergence, 0 to 100 scale where 0 is no effect and 100 is complete control, approx. 10 d, read-out: Kochia plant response rating), 60%; in assay [4] (preemergence, 0 to 100 scale where 0 is no effect and 100 is complete control, approx. 10 d, read-out: Barnyardgrass plant response rating), 90%; in assay [5] (preemergence, 0 to 100 scale where 0 is no effect and 100 is complete control, approx. 10 d, read-out: Pigweed plant response rating), 0%. For the same molecule, the pest or weed control at 500 g/ha is 60% in assay [1] (setting [21]); 70% in assay [2] (setting [23]); 70% in assay [3] (setting [25]); 90% in assay [4] (setting [27]); 30% in assay [5] (setting [29]).
